Tested on: E. coli
Assay: Disinfection effect of hydration liquids on catheters immersed in E. coli suspension
Assay type: cell-based
Details: 4 hours immersion, incubated at 37 deg. C for 19.5 hours
Source text: In another line of experiments, hydration liquids with different types of disinfection mediums were used, and evaluated in respect of the disinfection effect. The hydration liquid comprised 5 wt % of PVP K30, and various disinfection mediums. As comparative examples, a hydration liquid with PVP K30 but without any disinfection medium was used, as well as a hydration liquid only comprising water. For the tests, catheters were first activated in a hydration liquid containing a disinfectant. Thereafter, the catheters were immersed in an E. coli suspension. The catheters were then rinsed in plain water, before again being immersed in the same hydration liquid used for the activation for 4 hours. Thereafter, the catheters were transferred into a growth medium and incubated at 37 deg. C for 19.5 hours. After this, it was determined whether, or not, bacterial growth had occurred during incubation.

Question: How did the Result after incubation (disinfection medium 0.025 wt % in hydration liquid with 5 wt % PVP K30) turn out when benzalkonium chloride was run?
Answer: Its Result after incubation is “No growth”.

Question: What about the Result after incubation (disinfection medium 0.1 wt % in hydration liquid with 5 wt % PVP K30) of the same compound?
Answer: The Result after incubation was “No growth”.

Question: Which Result after incubation (disinfection medium 0.075 wt % in hydration liquid with 5 wt % PVP K30) does the source give for `Oc1cc(Cl)ccc1Oc1ccc(Cl)cc1Cl` [Triclosan, triclosan] here?
Answer: Its Result after incubation is “No growth”.

Question: And the Result after incubation (disinfection medium 0.3 wt % in hydration liquid with 5 wt % PVP K30)?
Answer: The Result after incubation was “No growth”.

Question: With `OCl` [Sodium hypochlorite, sodium hypochlorite] as the compound, how does the Result after incubation (disinfection medium 0.02 wt % in hydration liquid with 5 wt % PVP K30) read?
Answer: The Result after incubation was “No growth”.

Question: Which Result after incubation (disinfection medium 0.05 wt % in hydration liquid with 5 wt % PVP K30) does the source give for `O=[N+]([O-])[O-].[Ag+]` [Silver nitrate, silver nitrate] here?
Answer: The Result after incubation was “No growth”.

Question: And the Result after incubation (disinfection medium 0.2 wt % in hydration liquid with 5 wt % PVP K30)?
Answer: The Result after incubation was “No growth”.
